Laboratory results as given in patent US20230374025A1, “FGFR INHIBITOR COMPOUND AND USE THEREOF” (SHENZHEN KANGSU PHARMACEUTICAL TECHNOLOGY CO., LTD., priority 2021, published 2023).

Tests used:
Format in all cases: biochemical
VEGFR2 = target: T1, VEGFR2 (Homo sapiens, UniProt P35968); experiment: Assay I: VEGFR2 kinase inhibition (HTRF KinEASE-TK); details: ATP 5 μM, substrate TK 1 μM
T1 construct: purchased Carna 08-191
Procedure: (§1) Assay I: Determination of Inhibitory Activity Against FGFR Mutants
(§2) 1. Reagents and Equipment
(§3) 2.1 Preparation of 1× Kinase Reaction Buffer:
(§4) 1× Kinase reaction buffer was formulated with 1× volume of 5× kinase reaction buffer and 4× volume of water; 5 mM MgCl2; and 1 mM DTT.
(§5) 2.3 Screening of Compounds:
(§6) 1. Diluting a compound 4-fold in a dilution plate with DMSO, with a starting compound concentration of 2 mM.
(§7) 2. Diluting the compound 40-fold into 1× kinase reaction buffer and shaking it on a shaker for 20 minutes.
3. Formulating 2×FGFR1 V561M/FGFR2 V564F/FGFR3 K650E/VEGFR2 with 1× of enzyme reaction buffer.
4. Adding 2 μl FGFR1 V561M/FGFR2 V564F/FGFR3 K650E/VEGFR2 kinase (formulated in step 3) to each well of the reaction plate.
(§8) 5. Adding 1 μl of the compound diluted in buffer to each well, sealing the plate with a sealing membrane and centrifuging the plate at 1000 g for 30 seconds and leaving it at room temperature for 10 minutes.
(§9) 6. Formulating 2.5×TK-substrate-biotin and ATP mixture with 1× enzyme reaction buffer and adding 2 μl of K-substrate-biotin/ATP mixture to the reaction plate.
(§10) 7. Sealing the plate with a sealing membrane and centrifuging the plate at 1000 g for 30 seconds and allowing it to react at room temperature for 50 minutes.
(§11) 8. Formulating 4× Sa-XL 665 (250 nM) with HTRF assay buffer.
(§12) 9. Adding 5 μl Sa-XL 665 and 5 μl TK-Antibody-Cryptate to each well, centrifuging it at 1000 g for 30 seconds, and allowing it to react for 1 hour at room temperature.
(§13) 10. Reading fluorescence signals at 615 nm (Cryptate) and 665 nm (XL665) with Biotek.
(§14) 3.1 Calculation of the ratio for each well: the ratio was calculated as 665/615 nm.
(§15) 3.3 Calculation of IC50 and plotting of inhibition curves for the compounds.
(§16) The IC50 (half inhibition concentration) of a compound was obtained using the following non-linear fitting equation, wherein data analysis was performed using Graphpad 6.0 software.
(§17) Y=Bottom+(Top−Bottom)/(1+10^((Log IC50−X)*Hill Slope)) • X: log value of compound concentration; and Y: inhibition rate (% inh)
(§18) 3.4 Validation of Results
(§19) Data were exported from Envision and analyzed manually. The ratios were converted to inhibition rates and IC50 was calculated by Prism GraphPad 6.0 from the inhibition rates. IC50 was calculated again by the ratios to verify accuracy of the results.
Positive control IC50 was within 3 times of the average value

FGFR1 V561M = target: T2, FGFR1 V561M (Homo sapiens, UniProt P11362, V561M); experiment: Assay I: inhibitory activity against FGFR mutants (HTRF KinEASE-TK); details: ATP 5 μM, substrate TK 1 μM
T2 construct: purchased Signalchem F04-13G
Procedure: as §1, §2, §3, §4, §5, §6, §7, §8, §9, §10, §11, §12, §13, §14, §15, §16, §17, §18, §19

FGFR3 V555M = target: T3, FGFR3 V555M (Homo sapiens, UniProt P22607, V555M); experiment: as above; details: ATP 20 μM, substrate TK 1 μM
T3 construct: purchased Signalchem F06-12GG
Procedure: as §1, §2, §3, §4, §5, §6, §7, §8, §9, §10, §11, §12, §13, §14, §15, §16, §17, §18, §19

FGFR2 V564F = target: T4, FGFR2 V564F (Homo sapiens, UniProt P21802, V564F); experiment: as above; details: ATP 10 μM, substrate TK 1 μM
T4 construct: purchased Signalchem F05-12FG
Procedure: as §1, §2, §3, §4, §5, §6, §7, §8, §9, §10, §11, §12, §13, §14, §15, §16, §17, §18, §19

FGFR1 = target: T5, FGFR1 (Homo sapiens, UniProt P11362); experiment: Assay II: inhibitory activity against wild-type FGFR (HTRF KinEASE-TK); details: ATP 50 μM, substrate TK 1 μM
T5 construct: purchased Carna 08-133
Procedure: (§20) Assay II: Determination of Inhibitory Activity Against Wild-Type FGFR
as §2
(§21) 2. Experimental Steps PGP-5T
as §3, §4, §5, §6, §7
(§22) 3. Formulating 2×FGFR1/FGFR2/FGFR3 with 1× of enzyme reaction buffer.
(§23) 4. Adding 2 μl FGFR1/FGFR2/FGFR3 kinase (formulated in step 3) to each well of the reaction plate.
as §8
(§24) 6. Formulating 2.5×TK-substrate-biotin and ATP mixture with 1× enzyme reaction buffer and add 2 μl of K-substrate-biotin/ATP mixture to the reaction plate.
as §10, §11, §12, §13, §14, §15, §16, §17, §18, §19

FGFR3 = target: T6, FGFR3 (Homo sapiens, UniProt P22607); experiment: as above; details: ATP 50 μM, substrate TK 1 μM
T6 construct: purchased Carna 08-135
Procedure: as §20, §2, §21, §3, §4, §5, §6, §7, §22, §23, §8, §24, §10, §11, §12, §13, §14, §15, §16, §17, §18, §19

FGFR2 = target: T7, FGFR2 (Homo sapiens, UniProt P21802); experiment: as above; details: ATP 50 μM, substrate TK 1 μM
T7 construct: purchased Carna 08-134
Procedure: as §20, §2, §21, §3, §4, §5, §6, §7, §22, §23, §8, §24, §10, §11, §12, §13, §14, §15, §16, §17, §18, §19

T7 sequence (P21802 22-821): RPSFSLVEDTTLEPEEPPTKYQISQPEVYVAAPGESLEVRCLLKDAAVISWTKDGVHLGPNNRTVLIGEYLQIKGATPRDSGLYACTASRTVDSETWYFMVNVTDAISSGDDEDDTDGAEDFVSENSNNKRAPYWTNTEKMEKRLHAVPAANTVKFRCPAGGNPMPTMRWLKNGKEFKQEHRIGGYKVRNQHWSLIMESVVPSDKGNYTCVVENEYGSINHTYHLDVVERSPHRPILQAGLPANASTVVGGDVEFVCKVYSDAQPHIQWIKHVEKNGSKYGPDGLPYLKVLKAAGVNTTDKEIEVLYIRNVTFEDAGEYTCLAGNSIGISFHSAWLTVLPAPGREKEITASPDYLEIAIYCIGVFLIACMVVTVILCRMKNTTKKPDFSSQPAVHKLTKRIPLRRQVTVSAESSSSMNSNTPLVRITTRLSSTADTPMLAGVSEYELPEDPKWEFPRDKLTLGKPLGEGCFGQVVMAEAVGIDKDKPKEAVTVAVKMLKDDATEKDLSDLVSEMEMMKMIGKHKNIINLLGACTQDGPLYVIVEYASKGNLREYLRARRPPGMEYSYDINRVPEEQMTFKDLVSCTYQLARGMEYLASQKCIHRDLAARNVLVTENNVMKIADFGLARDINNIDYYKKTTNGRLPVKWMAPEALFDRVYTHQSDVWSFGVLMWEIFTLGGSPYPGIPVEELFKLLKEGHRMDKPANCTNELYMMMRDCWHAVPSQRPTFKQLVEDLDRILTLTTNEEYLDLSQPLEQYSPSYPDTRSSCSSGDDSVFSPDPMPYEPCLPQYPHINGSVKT
T5 sequence (P11362 22-822): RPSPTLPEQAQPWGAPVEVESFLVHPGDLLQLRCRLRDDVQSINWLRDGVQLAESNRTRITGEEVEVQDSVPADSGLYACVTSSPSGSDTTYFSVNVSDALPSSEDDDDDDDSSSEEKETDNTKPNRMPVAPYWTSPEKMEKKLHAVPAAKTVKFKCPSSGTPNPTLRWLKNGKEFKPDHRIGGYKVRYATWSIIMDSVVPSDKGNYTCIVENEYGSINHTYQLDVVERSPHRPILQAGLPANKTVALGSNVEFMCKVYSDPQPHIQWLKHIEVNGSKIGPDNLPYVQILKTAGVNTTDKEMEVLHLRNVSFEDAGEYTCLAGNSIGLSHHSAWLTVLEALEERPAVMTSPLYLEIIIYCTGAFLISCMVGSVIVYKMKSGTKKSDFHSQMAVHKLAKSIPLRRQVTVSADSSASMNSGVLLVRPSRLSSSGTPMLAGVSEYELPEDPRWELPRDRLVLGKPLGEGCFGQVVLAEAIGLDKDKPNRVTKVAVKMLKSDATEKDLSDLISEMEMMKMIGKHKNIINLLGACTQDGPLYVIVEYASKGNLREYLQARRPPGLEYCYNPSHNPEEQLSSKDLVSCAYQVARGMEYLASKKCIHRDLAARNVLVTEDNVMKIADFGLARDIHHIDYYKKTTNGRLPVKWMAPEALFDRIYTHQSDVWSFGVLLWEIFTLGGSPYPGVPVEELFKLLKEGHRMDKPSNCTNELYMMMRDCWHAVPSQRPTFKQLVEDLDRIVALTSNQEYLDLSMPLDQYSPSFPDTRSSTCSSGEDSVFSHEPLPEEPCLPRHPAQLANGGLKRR
T3 sequence (P22607 397-806 V555M limits assumed): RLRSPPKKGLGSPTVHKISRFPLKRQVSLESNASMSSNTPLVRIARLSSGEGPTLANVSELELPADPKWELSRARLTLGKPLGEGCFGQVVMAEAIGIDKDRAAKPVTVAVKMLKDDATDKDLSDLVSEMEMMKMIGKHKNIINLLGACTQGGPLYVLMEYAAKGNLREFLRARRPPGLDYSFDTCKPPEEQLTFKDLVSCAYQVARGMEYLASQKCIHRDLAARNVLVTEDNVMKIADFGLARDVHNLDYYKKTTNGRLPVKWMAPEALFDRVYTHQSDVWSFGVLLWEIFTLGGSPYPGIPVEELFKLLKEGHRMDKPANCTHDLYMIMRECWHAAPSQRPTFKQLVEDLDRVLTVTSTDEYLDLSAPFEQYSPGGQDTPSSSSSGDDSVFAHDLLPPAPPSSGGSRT
T4 sequence (P21802 22-821 V564F): as the sequence (P21802 22-821) above, with V543F counted along it
T6 sequence (P22607 23-806): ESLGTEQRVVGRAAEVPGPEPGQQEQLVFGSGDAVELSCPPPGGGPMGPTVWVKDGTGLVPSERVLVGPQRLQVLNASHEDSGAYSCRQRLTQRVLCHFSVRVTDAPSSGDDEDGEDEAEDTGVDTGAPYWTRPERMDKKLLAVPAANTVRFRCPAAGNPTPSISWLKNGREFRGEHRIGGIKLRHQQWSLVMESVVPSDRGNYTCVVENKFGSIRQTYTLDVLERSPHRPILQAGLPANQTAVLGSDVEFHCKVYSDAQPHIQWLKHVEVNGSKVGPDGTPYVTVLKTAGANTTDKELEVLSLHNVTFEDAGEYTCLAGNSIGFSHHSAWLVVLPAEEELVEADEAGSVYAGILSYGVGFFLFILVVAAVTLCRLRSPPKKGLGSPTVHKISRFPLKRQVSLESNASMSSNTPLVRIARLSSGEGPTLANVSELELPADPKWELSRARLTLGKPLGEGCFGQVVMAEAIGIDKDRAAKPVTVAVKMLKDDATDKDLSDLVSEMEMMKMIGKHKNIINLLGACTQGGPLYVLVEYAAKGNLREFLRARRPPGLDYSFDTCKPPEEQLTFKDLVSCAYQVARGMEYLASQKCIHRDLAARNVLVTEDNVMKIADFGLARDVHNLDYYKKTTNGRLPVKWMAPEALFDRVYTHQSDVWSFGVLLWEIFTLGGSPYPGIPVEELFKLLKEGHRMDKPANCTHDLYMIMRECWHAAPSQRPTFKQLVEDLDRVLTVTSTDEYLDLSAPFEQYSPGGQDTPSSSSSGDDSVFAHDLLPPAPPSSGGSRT
T1 sequence (P35968 20-1356): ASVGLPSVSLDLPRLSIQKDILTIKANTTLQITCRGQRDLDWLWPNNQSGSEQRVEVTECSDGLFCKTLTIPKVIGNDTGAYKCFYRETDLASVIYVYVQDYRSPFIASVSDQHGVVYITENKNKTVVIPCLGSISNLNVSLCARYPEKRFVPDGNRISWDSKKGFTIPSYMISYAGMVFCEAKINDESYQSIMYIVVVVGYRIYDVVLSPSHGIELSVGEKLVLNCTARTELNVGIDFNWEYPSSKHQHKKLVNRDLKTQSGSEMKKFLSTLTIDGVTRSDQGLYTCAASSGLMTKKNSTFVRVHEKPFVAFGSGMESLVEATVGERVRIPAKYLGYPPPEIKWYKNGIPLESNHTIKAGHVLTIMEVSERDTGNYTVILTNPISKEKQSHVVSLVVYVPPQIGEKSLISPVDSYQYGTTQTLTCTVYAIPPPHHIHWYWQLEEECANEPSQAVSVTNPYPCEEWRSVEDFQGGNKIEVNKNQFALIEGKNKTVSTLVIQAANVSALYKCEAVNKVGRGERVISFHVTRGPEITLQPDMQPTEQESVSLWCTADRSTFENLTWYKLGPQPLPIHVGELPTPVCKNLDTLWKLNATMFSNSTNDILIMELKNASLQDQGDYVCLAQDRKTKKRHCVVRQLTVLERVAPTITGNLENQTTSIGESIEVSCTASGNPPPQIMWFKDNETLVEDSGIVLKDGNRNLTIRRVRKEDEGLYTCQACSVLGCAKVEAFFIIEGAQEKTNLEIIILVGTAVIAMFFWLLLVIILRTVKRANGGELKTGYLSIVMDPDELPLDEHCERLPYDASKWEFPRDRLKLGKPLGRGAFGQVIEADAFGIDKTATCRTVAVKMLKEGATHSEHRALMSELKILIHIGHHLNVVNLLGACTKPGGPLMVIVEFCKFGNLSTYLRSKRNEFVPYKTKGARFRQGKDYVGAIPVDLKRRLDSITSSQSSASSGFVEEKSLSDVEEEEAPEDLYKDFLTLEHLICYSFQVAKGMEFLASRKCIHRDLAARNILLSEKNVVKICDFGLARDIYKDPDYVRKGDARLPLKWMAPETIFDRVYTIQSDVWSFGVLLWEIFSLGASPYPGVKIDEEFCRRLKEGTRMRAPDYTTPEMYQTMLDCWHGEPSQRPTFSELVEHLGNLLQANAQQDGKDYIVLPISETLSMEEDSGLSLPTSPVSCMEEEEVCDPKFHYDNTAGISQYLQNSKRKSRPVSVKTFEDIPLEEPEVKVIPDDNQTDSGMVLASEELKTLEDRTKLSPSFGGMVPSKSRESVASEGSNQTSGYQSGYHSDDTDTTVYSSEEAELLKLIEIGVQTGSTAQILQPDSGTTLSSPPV
T2 sequence (P11362 22-822 V561M): as the sequence (P11362 22-822) above, with V540M counted along it

Structure (SMILES) | IC50 (VEGFR2) | IC50 (FGFR1 V561M) | IC50 (FGFR3 V555M) | IC50 (FGFR2 V564F) | IC50 (FGFR1) | IC50 (FGFR3) | IC50 (FGFR2)
CC(Oc1ccc2[nH]nc(-c3nc4c([nH]3)CN(C(=O)N3CC[C@H](O)C3)C4)c2c1)c1c(Cl)cncc1Cl (stereo partly drawn) [Compound 10, (2-(5-(1-(3,5-dichloropyridin-4-yl)ethoxy)-1H-indazol-3-yl)-4,6-dihydropyrrolo[3,4-d]imidazol-5(1H)-yl)((S)-3-hydroxypyrrolidin-1-yl)ketone] | 2.4 nM | 0.2 nM | 0.35 nM | 0.33 nM | 3.1 nM | 3.4 nM | 2.2 nM
CC(Oc1ccc2[nH]nc(-c3nc4c([nH]3)CN(C(=O)N3CCN(C)CC3)C4)c2c1)c1c(Cl)cncc1Cl (centres unmarked) [Compound 1, (2-(5-(1-(3,5-dichloropyridin-4-yl)ethoxy)-1H-indazol-3-yl)-4,6-dihydropyrrolo[3,4-d]imidazol-5(1H)-yl)(4-methylpiperazin-1-yl)ketone] | 1 nM | 0.26 nM | 0.34 nM | 0.34 nM | 2.7 nM | 4.1 nM | 2.9 nM
CC(Oc1ccc2[nH]nc(-c3nc4c([nH]3)CN(C(=O)N3CCN(C)CC3)CC4)c2c1)c1c(Cl)cncc1Cl (centres unmarked) [Compound 5, (2-(5-(1-(3,5-dichloropyridin-4-yl)ethoxy)-1H-indazol-3-yl)-3,4,6,7-tetrahydro-5H-imidazo[4,5-c]pyridin-5-yl)(4-methylpiperazin-1-yl)ketone] | 0.75 nM | 0.58 nM | 0.23 nM | 0.36 nM | 1.8 nM | 3.8 nM | 2.1 nM
CC(Oc1ccc2[nH]nc(-c3nc4c([nH]3)CN(C(=O)N3CCOCC3)C4)c2c1)c1c(Cl)cncc1Cl (centres unmarked) [Compound 8, (2-(5-(1-(3,5-dichloropyridin-4-yl)ethoxy)-1H-indazol-3-yl)-4,6-dihydropyrrolo[3,4-d]imidazol-5(1H)-yl)(morpholinyl)ketone] | 2.1 nM | 0.33 nM | 0.45 nM | 0.36 nM | 4.1 nM | 4.5 nM | 2.8 nM
CC(Oc1ccc2[nH]nc(-c3nc4c([nH]3)CN(C)C4)c2c1)c1c(Cl)cncc1Cl (centres unmarked) [Compound 11, 5-(1-(3,5-dichloropyridin-4-yl)ethoxy)-3-(5-methyl-1,4,5,6-tetrahydropyrrolo[3,4-d]imidazol-2-yl)-1H-indazole] | 25.6 nM | 0.46 nM | 1.1 nM | 1.3 nM | 1.7 nM | 0.6 nM | 0.95 nM
C[C@@H](Oc1ccc2[nH]nc(-c3nc4c([nH]3)CN(C(=O)CN3CC[C@H](O)C3)C4)c2c1)c1c(Cl)cncc1Cl [Compound 42, 1-(2-(5-((R)-1-(3,5-Dichloropyridin-4-yl)ethoxy)-1H-indazol-3-yl)-4,6-dihydropyrrolo[3,4-d]imidazol-5(1H)-yl)-2-((S)-3-hydroxypyrrolidin-1-yl)ethan-1-one] | 10.3 nM | 1 nM | 0.33 nM | 0.18 nM | – | – | –
CC(Oc1ccc2[nH]nc(-c3nc4c([nH]3)CN(CC3CCN(C)CC3)C4)c2c1)c1c(Cl)cncc1Cl (centres unmarked) [Compound 2, 5-(1-(3,5-dichloropyridin-4-yl)ethoxy)-3-(5-((1-methylpiperidin-4-yl)methyl)-1,4,5,6-tetrahydropyrrolo[3,4-d]imidazol-2-yl)-1H-indazole] | 2.6 nM | 0.21 nM | 0.05 nM | 0.1 nM | – | – | –
C[C@@H](Oc1ccc2[nH]nc(-c3nc4c([nH]3)CN(C(=O)[C@@H]3CCCCN3)C4)c2c1)c1c(Cl)cncc1Cl [Compound 46, (2-(5-((R)-1-(3,5-dichloropyridin-4-yl)ethoxy)-1H-indazol-3-yl)-4,6-dihydropyrrolo[3,4-d]imidazol-5(1H)-yl)((S)-piperidin-2-yl)ketone] | 9.9 nM | 0.65 nM | 0.33 nM | 0.29 nM | – | – | –
CC(Oc1ccc2[nH]nc(-c3nc4c([nH]3)CN(C(=O)OCCC#N)C4)c2c1)c1c(Cl)cncc1Cl (centres unmarked) [Compound 24, 2-cyanoethyl 2-(5-(1-(3,5-dichloropyridin-4-yl)ethoxy)-1H-indazol-3-yl)-4,6-dihydropyrrolo[3,4-d]imidazole-5(1H)-carboxylate] | 27.5 nM | 2.4 nM | 4.6 nM | 1.4 nM | – | – | –
C[C@@H](Oc1ccc2[nH]nc(-c3nc4c([nH]3)CN(C(=O)CN3CCC3)C4)c2c1)c1c(Cl)cncc1Cl [Compound 51, (R)-2-(Azetidin-1-yl)-1-(2-(5-(1-(3,5-dichloropyridin-4-yl)ethoxy)-1H-indazol-3-yl)-4,6-dihydropyrrolo[3,4-d]imidazol-5(1H)-yl)ethan-1-one] | 14.2 nM | 0.74 nM | 0.16 nM | 0.21 nM | – | – | –
CC(Oc1ccc2[nH]nc(-c3nc4c([nH]3)CN(CCN3CCOCC3)C4)c2c1)c1c(Cl)cncc1Cl (centres unmarked) [Compound 12] | 14.2 nM | 1.2 nM | 0.21 nM | 0.29 nM | – | – | –
CC(Oc1ccc2[nH]nc(-c3nc4c([nH]3)CNC4)c2c1)c1c(Cl)cncc1Cl (centres unmarked) [Compound 19, 5-(1-(3,5-dichloropyridin-4-yl)ethoxy)-3-(1,4,5,6-tetrahydropyrrolo[3,4-d]imidazol-2-yl)-1H-indazole] | 31 nM | 0.6 nM | 0.76 nM | 0.59 nM | – | – | –
CC(Oc1ccc2[nH]nc(-c3nc4c([nH]3)CN(C(=O)CN3CCC(C#N)C3)C4)c2c1)c1c(Cl)cncc1Cl (centres unmarked) [Compound 32, 1-(2-(2-(5-(1-(3,5-dichloropyridin-4-yl)ethoxy)-1H-indazol-3-yl)-4,6-dihydropyrrolo[3,4-d]imidazol-5(1H)-yl)-2-oxoethyl)pyrrolidine-3-carbonitrile] | 3.7 nM | 1.1 nM | 0.19 nM | 1.2 nM | – | – | –
C[C@@H](Oc1ccc2[nH]nc(-c3nc4c([nH]3)CN(C(=O)N(C)C)C4)c2c1)c1c(Cl)cncc1Cl [Compound 34, (R)-2-(5-(1-(3,5-dichloropyridin-4-yl)ethoxy)-1H-indazol-3-yl)-N,N-dimethyl-4,6-dihydropyrrolo[3,4-d]imidazole-5(1H)-carboxamide] | 1.7 nM | 0.46 nM | 0.27 nM | 0.29 nM | – | – | –
CCS(=O)(=O)N1Cc2nc(-c3n[nH]c4ccc(OC(C)c5c(Cl)cncc5Cl)cc34)[nH]c2C1 (centres unmarked) [Compound 28, 5-(1-(3,5-dichloropyridin-4-yl)ethoxy)-3-(5-(ethylsulfonyl)-1,4,5,6-tetrahydropyrrolo[3,4-d]imidazol-2-yl)-1H-indazole] | 30 nM | 1.6 nM | 0.52 nM | 0.3 nM | – | – | –
CC(Oc1ccc2[nH]nc(-c3nc4c([nH]3)CN(C(=O)CC#N)C4)c2c1)c1c(Cl)cncc1Cl (centres unmarked) [Compound 27, 3-(2-(5-(1-(3,5-dichloropyridin-4-yl)ethoxy)-1H-indazol-3-yl)-4,6-dihydropyrrolo[3,4-d]imidazol-5(1H)-yl)-3-oxopropionitrile] | 37.5 nM | 0.94 nM | 0.4 nM | 0.16 nM | – | – | –
CC(Oc1ccc2[nH]nc(-c3nc4c([nH]3)CN(S(C)(=O)=O)C4)c2c1)c1c(Cl)cncc1Cl (centres unmarked) [Compound 16, 5-(1-(3,5-dichloropyridin-4-yl)ethoxy)-3-(5-(methylsulfonyl)-1,4,5,6-tetrahydropyrrolo[3,4-d]imidazol-2-yl)-1H-indazole] | 22.1 nM | 0.39 nM | 0.35 nM | 0.22 nM | – | – | –
